From patent publication US20050227249A1, “Polymorphisms in the human MDR-1 gene and their use in diagnostic and therapeutic applications” (priority 1999, published 2005)
Several values for one entry are separate records, joined by “and”; a condition that tells them apart may be missing. Equal values may be shown once. Blank lines part the entries; values can stand above or below the compound they belong to.

What was measured:
[1] = Phenytoin blood levels in patients by 2C9/2C19 and MDR-1 exon 26 (C3435T) genotype; assay type: in vivo, human
MDR-1 [2] = target: T1, MDR-1 (Homo sapiens, UniProt P08183); assay: clinical; parameters: from tissue; host or cells: colon (intestine) of human probands, in vivo; settings: in vivo, po, 1 mg, digoxin concentration in blood (Dig AUC)
Text: To identify potential direct correlations of MDR-1 polymorphisms with clinical relevant phenotypes in humans, probands from a study at the Dr. Margarete Fischer-Bosch-Institut for Clinical Pharmacology in Stuttgart, were subjected to the determination of MDR-1 polymorphisms as described in examples 2-4. The expression levels of MDR-1 in the colon and liver of these patients was also estimated by established immunohistochemical detection of the MDR-1 protein. In the proband population, in addition to measurements of the expression levels of MDR-1 in the colon, measurements of MDR-1 upon induction of the gene by rifampicine were performed. Also, the in vivo activity of MDR-1 under noninduced and rifampicine induced conditions was determined by measuring the blood concentrations of orally administered digoxin (1 mg), which is a known MDR-1 substrate and whose blood concentration also depends on the MDR-1 activity in the colon. The results of the MDR-1 measurements, rifampicine induction experiments and digoxin-experiments, as well as results from the MDR-1 polymorphism detection analysis in the proband population show correlations between MDR-1 gene expression and MDR-1 in vivo activity with certain polymorphisms. […]

[3] = digoxin maximum plasma concentration (Cmax) at steady state after oral application, by MDR-1 exon 26 genotype; assay type: in vivo, human; settings: 7 T/T vs 7 C/C volunteers, T/T higher, p=0.006
Procedure: For a further validation of the correlation of MDR-1 genotype with intestinal digoxin uptake, additional volunteers of another clinical study at the University Medical Center, Charite in Berlin that addresses blood levels of digoxin after oral application (without rifampin induction and PGP protein determination, Johne et al. (1999), Clin.
In this study, maximum plasma concentrations (Cmax) were evaluated during steady state conditions of digoxin.

MDR-1 [4] = target: T1, MDR-1; assay: clinical; parameters: The expression levels of MDR-1 in the colon and liver of these patients was also estimated by established immunohistochemical detection; from tissue; host or cells: colon (intestine) of human probands, in vivo; settings: in vivo
Text: To identify potential direct correlations of MDR-1 polymorphisms with clinical relevant phenotypes in humans, probands from a study at the Dr. Margarete Fischer-Bosch-Institut for Clinical Pharmacology in Stuttgart, were subjected to the determination of MDR-1 polymorphisms as described in examples 2-4. The expression levels of MDR-1 in the colon and liver of these patients was also estimated by established immunohistochemical detection of the MDR-1 protein. In the proband population, in addition to measurements of the expression levels of MDR-1 in the colon, measurements of MDR-1 upon induction of the gene by rifampicine were performed. Also, the in vivo activity of MDR-1 under noninduced and rifampicine induced conditions was determined by measuring the blood concentrations of orally administered digoxin (1 mg), which is a known MDR-1 substrate and whose blood concentration also depends on the MDR-1 activity in the colon. The results of the MDR-1 measurements, rifampicine induction experiments and digoxin-experiments, as well as results from the MDR-1 polymorphism detection analysis in the proband population show correlations between MDR-1 gene expression and MDR-1 in vivo activity with certain polymorphisms.
This was done by measuring the blood concentrations of orally administered digoxin which is a known MDR-1 substrate and whose blood concentration also depends on the MDR-1 activity in the colon. […] The probands that harbor the T allele (correlates with weaker MDR-1 expression, see Tab. 4), contain higher blood levels of digoxin compared to samples which have only the corresponding homozygous C-allele. […] This is totally consistent with the function of MDR-1 in the colon, i.e. re-transport and elimination of substrates from the uptaking cells into the lumen of the colon. […] The difference of the digoxin blood levels between these individuals was more than 4-fold.

MDR-1 [5] = assay: MDR-1 (PGP) protein levels in probands upon induction by rifampicine, immunohistochemical detection; assay type: in vivo, human; settings: for PGP concentration, mean / PGP concentration: rifampicine-induced probands; for PGP concentration: individual probands
Procedure: The expression levels of MDR-1 in the colon and liver of these patients was also estimated by established immunohistochemical detection of the MDR-1 protein. In the proband population, in addition to measurements of the expression levels of MDR-1 in the colon, measurements of MDR-1 upon induction of the gene by rifampicine were performed. Also, the in vivo activity of MDR-1 under noninduced and rifampicine induced conditions was determined by measuring the blood concentrations of orally administered digoxin (1 mg), which is a known MDR-1 substrate and whose blood concentration also depends on the MDR-1 activity in the colon.

T1 sequence (P08183 whole entry): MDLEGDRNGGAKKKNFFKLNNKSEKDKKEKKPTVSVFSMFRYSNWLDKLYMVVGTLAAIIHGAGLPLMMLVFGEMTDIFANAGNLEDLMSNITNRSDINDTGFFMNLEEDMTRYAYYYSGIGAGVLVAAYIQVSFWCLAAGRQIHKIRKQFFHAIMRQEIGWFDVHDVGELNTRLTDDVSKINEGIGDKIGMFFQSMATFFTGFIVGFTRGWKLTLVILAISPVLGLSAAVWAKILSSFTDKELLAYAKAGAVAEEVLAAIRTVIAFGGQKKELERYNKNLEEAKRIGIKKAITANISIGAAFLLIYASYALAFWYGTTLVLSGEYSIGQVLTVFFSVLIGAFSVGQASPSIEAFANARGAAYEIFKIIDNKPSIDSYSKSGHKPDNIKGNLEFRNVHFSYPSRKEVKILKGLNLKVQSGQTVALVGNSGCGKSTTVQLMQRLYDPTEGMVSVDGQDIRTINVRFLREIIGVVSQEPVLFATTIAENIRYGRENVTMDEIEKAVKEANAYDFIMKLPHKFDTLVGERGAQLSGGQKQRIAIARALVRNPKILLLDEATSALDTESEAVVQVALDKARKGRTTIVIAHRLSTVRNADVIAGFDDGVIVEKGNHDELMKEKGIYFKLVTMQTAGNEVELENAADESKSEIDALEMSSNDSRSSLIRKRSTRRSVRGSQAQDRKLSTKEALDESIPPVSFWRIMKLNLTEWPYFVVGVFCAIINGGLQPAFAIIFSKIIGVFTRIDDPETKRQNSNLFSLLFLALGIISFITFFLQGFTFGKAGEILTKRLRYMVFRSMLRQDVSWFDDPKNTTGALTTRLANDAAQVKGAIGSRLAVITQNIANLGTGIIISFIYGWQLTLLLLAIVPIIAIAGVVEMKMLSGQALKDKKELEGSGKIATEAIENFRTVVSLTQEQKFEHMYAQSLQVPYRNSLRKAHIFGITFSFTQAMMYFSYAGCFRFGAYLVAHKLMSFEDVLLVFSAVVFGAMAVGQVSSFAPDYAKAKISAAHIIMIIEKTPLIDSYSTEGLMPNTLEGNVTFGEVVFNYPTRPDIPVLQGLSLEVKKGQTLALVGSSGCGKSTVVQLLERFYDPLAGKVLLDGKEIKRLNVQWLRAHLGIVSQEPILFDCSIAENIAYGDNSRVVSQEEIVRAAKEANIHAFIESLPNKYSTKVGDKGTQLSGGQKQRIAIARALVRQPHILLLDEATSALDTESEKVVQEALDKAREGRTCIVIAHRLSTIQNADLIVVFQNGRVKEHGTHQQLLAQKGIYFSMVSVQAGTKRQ

highest blood concentration, increase compared to the normal population ([1]; 2C9 deficient patient with low PGP (T/T) genotype, within a group of 100 patients): about twofold
Phenytoin blood levels ([1]; 2C9 normal metabolizers, MDR-1 genotype CC and CT (intestinal PGP high/medium)): normal
Phenytoin blood levels ([1]; 2C9 normal metabolizers, MDR-1 genotype TT (intestinal PGP low)): normal
Phenytoin blood levels ([1]; 2C9 weak and/or deficient metabolizers, MDR-1 genotype CC and CT (intestinal PGP high/medium)): high
Phenytoin blood levels ([1]; 2C9 weak and/or deficient metabolizers, MDR-1 genotype TT (intestinal PGP low)): VERY HIGH
Compound: O=C1NC(=O)C(c2ccccc2)(c2ccccc2)N1 [Phenytoin]

AUC (MDR-1 [2]): 63.6 ng·h/mL
mean difference in digoxin Cmax between T/T and C/C groups [3]: 38%
difference of the digoxin blood levels between homozygous T and homozygous C proband (MDR-1 [4]): more than 4 fold
highest rif-induced dig blood level (MDR-1 [4]): 12.3
lowest rif-induced dig blood level (MDR-1 [4]): 57.3
Compound: C[C@H]1O[C@@H](O[C@H]2[C@@H](O)C[C@H](O[C@H]3[C@@H](O)C[C@H](O[C@H]4CC[C@@]5(C)[C@H](CC[C@@H]6[C@@H]5C[C@@H](O)[C@]5(C)[C@@H](C7=CC(=O)OC7)CC[C@]65O)C4)O[C@@H]3C)O[C@@H]2C)C[C@H](O)[C@@H]1O [digoxin]

Compound: CO[C@H]1/C=C/O[C@@]2(C)Oc3c(C)c(O)c4c(O)c(c(/C=N/N5CCN(C)CC5)c(O)c4c3C2=O)NC(=O)/C(C)=C\C=C\[C@H](C)[C@H](O)[C@@H](C)[C@@H](O)[C@@H](C)[C@H](OC(C)=O)[C@@H]1C [rifampicine]
highest rif-induced activity (PGP concentration) (MDR-1 [5]; proband homozygous C/C at position 176): 1264.9
lowest rif-induced activity (PGP concentration) (MDR-1 [5]; proband homozygous T/T at position 176): 142.1
difference of induced MDR-1 expression levels between homozygous C and homozygous T proband (MDR-1 [5]; rifampicin-induced, highest (C/C) vs lowest (T/T) proband): 9 fold
PGP concentration, mean (MDR-1 [5]; T-allele absent (C/C only)): 924 relative units
PGP concentration, mean (MDR-1 [5]; T-allele present (T/T and T/C)): 587 relative units
PGP concentration (MDR-1 [5]; T-allele absent (C/C only)): 423 relative units and 1264 relative units and 1086 relative units
PGP concentration (MDR-1 [5]; T-allele present (T/T and T/C) at position 176 in exon 26): 142 relative units and 1085 relative units and 520 relative units and 601 relative units
